Test [1] can be described thus: DPPH· free radical scavenging assay. The following applies: for IC50: DPPH· scavenging, 0.2 mM DPPH· in DMSO, absorbance 515 nm; for antiradical capacity lower than other series 3 analogues (fold): relative to other curcumin analogues in series 3. Here is the method: DPPH^· assay is widely used to observe radical scavenging activity of various compounds and extracts. DPPH^· is stable N radical which is reduced to hydrazine during its reaction with hydrogen donors.
Initially, 0.2 mM DPPH^· solution was prepared using DMSO as the solvent. […] During reduction of DPPH^· solution by antiradical compound, absorption of DPPH^· was measured at 515 nm. The spectrophotometric data was acquired using BMG FLUOstar OPTIMA spectrophotometer (BMG Labtech, Durham, NC, USA) and the IC50 values were calculated.

Test [2] can be described thus: Ferric reducing ability of plasma (FRAP) assay. Particulars: for FRAP antioxidant capacity: 10 μM compounds dissolved in DMSO, Trolox equivalence, mean ± SD. The source says: The FRAP assay uses antioxidants in a redox-linked colorimetric assay to reduce ferric tripyridyl triazine to ferrous form at low pH [20].
FRAP assay is based on ferric to ferrous ion reduction to test the electron donating capacity of antioxidants. The assay was modified by using the 96-well microplate reader with an injection port system. Briefly, the FRAP working reagent was made using acetate buffer, 2,4,6-Tris (2-pyridyl)-s-triazine solution and ferric chloride in the ratio 10:1:1. […] After 6 min reaction time, absorbance was measured at 593 nm. Trolox standards at different concentrations were used to calculate the antioxidant capacity as mmol Trolox equivalence per L.

Test [3] is described as follows: Oxygen radical absorbance capacity (ORAC) assay. Particulars: for ORAC antioxidant capacity: 1 μM compounds dissolved in DMSO, Trolox equivalence, mean ± SD. Here is the method:
ORAC assay is based on the free radical damage to a fluorescence probe measured by fluorescence intensity over the time. The fluorescein sodium salt was used as fluorescence probe and change in its intensity was estimated as the index of the degree of free radical damage. Assay was performed using method described elsewhere. Briefly, the standards and samples were prepared using 75 mM phosphate buffer (pH 7). As the peroxy radicals are generated from decomposition of 2,2'-azobis(2-amidino-propane) dihydrochloride (AAPH), the signal was quenched from fluorescein. However, in the presence of antioxidant samples the fluorescence signal can be stabilize which depends directly upon the antioxidant’s capacity to neutralize the free radical. Quadratic relation emerging from florescent area under the decaying curve was used to calculate antioxidant capacity as mmol Trolox equivalence per L.

Test [4] concerns angiotensin converting enzyme (ACE). The test is described as follows: Angiotensin converting enzyme (ACE) inhibition assay. Format: biochemical. The following applies: 10 μM compounds dissolved in DMSO. Here is the method: ACE assay is based on ACE inhibitory activity of test samples. The enzyme activity was measured by production of hippuric acid from the substrate hippuryl-L-histidyl-L-leucine (HHL). ACE cleaves the substrate to expose a free N-terminus, which was fluorogenically labeled with o-phthaldialdehyde (OPA). The florescence signal was measured by using excitation of 350 nm and emission of 500 nm. ACE inhibition activity of samples was measured using the following equation: % inhibition = 100 − (Acontrol − Asample)/Acontrol × 100 (1) where A is the absorbance Equation (1).

The next test has as its system Tyrosinase. The test is described as follows: Tyrosinase inhibition assay (L-DOPA substrate). The following applies: 10 μM compounds dissolved in DMSO. It is filed as biochemical. Here is the method:
Tyrosinase inhibition was calculated based on previously described methods using L-DOPA as the substrate. Tyrosinase inhibition depended upon the amount of dopachrome produced in the reaction mixture. Absorption was measured at 490 nm to calculate the amount of dopachrome produced. The assay was performed in 96-well clear polystyrene plates using FLUOstar OPTIMA plate reader. The tyrosinase inhibitory effect of sample was measured using the following the Equation (1).

A further test addresses T1, HIV-1 protease (Human immunodeficiency virus type 1 group M subtype B, UniProt P04585).
T1 construct: HIV-1 protease enzyme (Sigma Aldrich); purchased Sigma Aldrich
The test is described as follows: HIV-1 protease inhibition assay (fluorescent substrate). Particulars: 10 μM compounds dissolved in DMSO; for inhibition at 10 µM: read-out: % Enzyme Inhibition HIV-I protease. It is filed as biochemical. As for the experimental part: HIV-1 protease inhibition was performed by using a previously described method. HIV protease fluorescent substrate and HIV-1 protease enzyme (Sigma Aldrich) were used to determine HIV inhibition capacity of sample. Three primary controls i.e., blank, sample and positive control were used. Reaction mixture of 200 µL comprised of five enzyme units (5U) of HIV-1 protease along with 0.5 pmol of enzyme substrate. After addition of both enzymes and substrates, test compounds were added in different concentrations. Reaction mixture was incubated at 37 °C which leads to generation of fluorescence signal by cleaving Tyr-Pro peptide bond of the substrate. Finally reaction mixture was heated for 5 minutes at 90 °C to stop the reaction. The mixture was centrifuged at 12,000 rpm for 3 min. and supernatant was used to measure the fluorescence signal. The enzyme inhibition was calculated using the Equation (1).

Where [5] appears, read: DPPH assay, relative to curcumin.

Marks after values point to notes of the source that are not given here.

Usually IC50 stands for the midpoint of a concentration-inhibition curve. Read a low IC50 as higher potency. In general, inhibition refers to the percentage by which the read-out fell short of the control.

In turn, `O=C1/C(=C(O)/C=C/c2ccccc2)CCC/C1=C\c1ccccc1` [Compound 2a] registered an IC50 in test [1] of 2860 µM. The FRAP antioxidant capacity in test [2] is 1.13 ± 0.4 ^g mmole TE/L. Moreover, in test [3], the ORAC antioxidant capacity is 0.12 ± 0.01 ^g mmole TE/L. The “% Enzyme Inhibition ACE” value in test [4] is recorded as 19.69 ^g %. For the same compound, the “% Enzyme Inhibition Tyrosinase” value in the test on Tyrosinase was 46.1 ^i %. Also, the inhibition at 10 µM on HIV-1 protease is 48.2%.

Regarding `COc1ccc(/C=C/C(O)=C2\CCC/C(=C\c3ccc(OC)cc3)C2=O)cc1` [Compound 2c], the “DPPH· scavenging capacity weaker than curcumin (fold)” value in test [1] (setting [5]) is ~ 5 fold. Further, the IC50 in test [1] stood at 4070 µM. In addition, the FRAP antioxidant capacity in test [2] is given as 1.32 ± 0.001 ^f mmole TE/L. Also, the ORAC antioxidant capacity in test [3] was 0.11 ± 0.01 ^g mmole TE/L. In addition, the “% Enzyme Inhibition ACE” value in test [4] is 4.01 ^g %. In addition, the “% Enzyme Inhibition Tyrosinase” value in the test on Tyrosinase is 40.63 ^j %. Moreover, the inhibition at 10 µM at HIV-1 protease worked out at 43.7%.

`COc1cc(/C=C/C(O)=C2\CCC/C(=C\c3ccc(O)c(OC)c3)C2=O)ccc1O` [Compound 2d]: the IC50 in test [1] is 720 µM. In test [2], the FRAP antioxidant capacity is 5.35 ± 0.1 ^b mmole TE/L. For the same compound, the ORAC antioxidant capacity in test [3] is given as 0.50 ± 0.02 ^ef mmole TE/L. Also, the “% Enzyme Inhibition ACE” value in test [4] is on record as 84.59 ^ab %. Also, the “% Enzyme Inhibition Tyrosinase” value in the test with Tyrosinase is recorded as 56.84 ^h %. Also, the inhibition at 10 µM at HIV-1 protease is 37.3%.

As to `O=C1/C(=C(O)/C=C/c2ccc(Cl)cc2)CCC/C1=C\c1ccc(Cl)cc1` [Compound 2f], the IC50 in test [1] came out at 710 µM. For the same compound, the FRAP antioxidant capacity in test [2] was 1.28 ± 0.04 ^fg mmole TE/L. The ORAC antioxidant capacity in test [3] is recorded as 0.49 ± 0.1 ^ef mmole TE/L. Moreover, in test [4], the “% Enzyme Inhibition ACE” value is “No ACE inhibition activity was detected”. The “% Enzyme Inhibition Tyrosinase” value in the test on Tyrosinase is reported as 60.15 ^ef %. Further, the inhibition at 10 µM at HIV-1 protease came to 9.9%.

As to `O=C1/C(=C(O)/C=C/c2ccccc2)CC/C1=C\c1ccccc1` [Compound 3a], the “radical scavenging capacity higher than curcumin (fold)” value in test [1] (setting [5]) is “over 10 fold”. Half-maximal inhibition in test [1] (IC50) was put at 70 µM. For the same compound, the FRAP antioxidant capacity in test [2] is 1.41 ± 0.1 ^f mmole TE/L. Also, in test [3], the ORAC antioxidant capacity is on record as 1.12 ± 0.1 ^c mmole TE/L. Further, in test [4], the “% Enzyme Inhibition ACE” value is recorded as 51.96 ^ef %. In the test with Tyrosinase, the “% Enzyme Inhibition Tyrosinase” value is given as 70.85 ^c %. The inhibition at 10 µM at HIV-1 protease turned out to be 27%.

On to `O=C1/C(=C(O)/C=C/c2ccc(O)cc2)CC/C1=C\c1ccc(O)cc1` [Compound 3b], for which the “radical scavenging capacity higher than curcumin (fold)” value in test [1] (setting [5]) is reported as “over 10 fold”. In test [1], this compound displayed an IC50 of 60 µM. Also, the FRAP antioxidant capacity in test [2] was 2.29 ± 0.1 ^e mmole TE/L. In addition, the ORAC antioxidant capacity in test [3] is on record as 0.49 ± 0.1 ^ef mmole TE/L. In addition, the “% Enzyme Inhibition ACE” value in test [4] is on record as 90.55 ^ab %. Besides, the inhibition at 10 µM on HIV-1 protease amounted to 41.1%.

As to `Cc1ccc(/C=C/C(O)=C2\CC/C(=C\c3ccc(C)cc3)C2=O)cc1` [Compound 3g], in test [1] (DPPH assay), the “antiradical capacity lower than other series 3 analogues (fold)” value is on record as “approximately 10 fold”. Further, the IC50 in test [1] came out at 510 µM. The FRAP antioxidant capacity in test [2] is 0.95 ± 0.02 ^hi mmole TE/L. In addition, in test [3], the ORAC antioxidant capacity is recorded as 1.25 ± 0.04 ^bc mmole TE/L. In addition, the “% Enzyme Inhibition ACE” value in test [4] is 46.19 ^ef %. The “% Enzyme Inhibition Tyrosinase” value in the test on Tyrosinase is recorded as 67.18 ^d %. Besides, on HIV-1 protease, the inhibition at 10 µM is 22.7%.

In the case of `O=C1/C(=C(O)/C=C/c2ccc([N+](=O)[O-])cc2)CC/C1=C\c1ccc([N+](=O)[O-])cc1` [Compound 3h], in test [1] (DPPH assay), the “antiradical capacity lower than other series 3 analogues (fold)” value is “approximately 10 fold”. The compound also had an IC50 in test [1] of 360 µM. In test [2], the FRAP antioxidant capacity is on record as 1.05 ± 0.01 ^ghi mmole TE/L. The ORAC antioxidant capacity in test [3] is 0.84 ± 0.1 ^d mmole TE/L. Further, in test [4], the “% Enzyme Inhibition ACE” value is listed as 88.01 ^ab %. In addition, the “% Enzyme Inhibition Tyrosinase” value in the test with Tyrosinase is given as 59.22 ^fg %. Also, the inhibition at 10 µM on HIV-1 protease came out at 44.8%.

“(1E,6E)-1,7-bis(4-hydroxy-3-methoxyphenyl)-1,6-heptadiene-3,5-dione [Curcumin, reference compound]” registered an IC50 in test [1] of 860 µM. The FRAP antioxidant capacity in test [2] was 5.01 ± 0.1 ^c mmole TE/L. For the same compound, in test [3], the “ORAC value, peroxyl radical scavenging capacity” value came to 5.01 mM TE/L and the ORAC antioxidant capacity is recorded as 1.89 ± 0.2 ^a mmole TE/L. Besides, the “% Enzyme Inhibition ACE” value in test [4] is 76.86 ^bc %. The “% Enzyme Inhibition Tyrosinase” value with Tyrosinase is on record as 12.61 ^k %.

For the compound “(E)-2-(3,4-dimethoxybenzylidene)-5-((E)-3-(3,4-dimethoxyphenyl)acryloyl)cyclopentanone [Compound 3e]”, the “radical scavenging capacity higher than curcumin (fold)” value in test [1] (setting [5]) was “over 10 fold”. Further, the IC50 in test [1] amounted to 30 µM. In addition, the FRAP antioxidant capacity in test [2] is given as 0.67 ± 0.02 ^j mmole TE/L. The ORAC antioxidant capacity in test [3] is 0.69 ± 0.1 ^e mmole TE/L. In test [4], the “% Enzyme Inhibition ACE” value is recorded as 56.95 ^de %. The “% Enzyme Inhibition HIV-I protease” value on HIV-1 protease is 44.5 ^cd %.

For “(E)-2-(3,4-dimethoxybenzylidene)-6-((E)-3-(3,4-dimethoxyphenyl)acryloyl)cyclohexanone [Compound 2e]”, 2570 µM corresponded to half-maximal inhibition in test [1] (IC50). Moreover, the FRAP antioxidant capacity in test [2] was 0.47 ± 0.1 ^k mmole TE/L. Further, the “FRAP value” in test [2] (10 µM concentration) is 0.47 mM TE/L. Further, in test [3], the ORAC antioxidant capacity was 0.60 ± 0.1^e mmole TE/L. Besides, the “% Enzyme Inhibition ACE” value in test [4] is recorded as 36.56 ^f %. Further, on HIV-1 protease, the “% Enzyme Inhibition HIV-I protease” value is given as 61.6 ^a %.

As to “(E)-2-(4-hydroxy-3-methoxybenzylidene)-5-((E)-3-(4-hydroxy-3-methoxyphenyl)acryloyl)-cyclopentanone [Compound 3d]”, the “radical scavenging capacity higher than curcumin (fold)” value in test [1] (setting [5]) is “over 10 fold”. The same compound showed an IC50 in test [1] of 70 µM. Also, the FRAP antioxidant capacity in test [2] was 6.70 ± 0.32 ^a mmole TE/L. The ORAC antioxidant capacity in test [3] is recorded as 0.75 ± 0.05 ^d mmole TE/L. The “% Enzyme Inhibition ACE” value in test [4] is reported as 93.89 ^a %. In addition, the “% Enzyme Inhibition Tyrosinase” value in the test with Tyrosinase is 79.99 ^b %. For the same compound, on HIV-1 protease, the “% Enzyme Inhibition HIV-I protease” value is on record as 41.8 ^de %.

“(E)-2-(4-hydroxybenzylidene)-6-((E)-3-(4-hydroxyphenyl)acryloyl)cyclohexanone [Compound 2b]” gave an IC50 in test [1] of 2580 µM. Also, the FRAP antioxidant capacity in test [2] is on record as 3.02 ± 0.02 ^d mmole TE/L. In addition, in test [3], the ORAC antioxidant capacity is recorded as 0.43 ± 0.1 ^f mmole TE/L. For the same compound, the “% Enzyme Inhibition ACE” value in test [4] was 88.73 ^ab %. Also, at HIV-1 protease, the “% Enzyme Inhibition HIV-I protease” value is listed as 55.5 ^b %.

Source of the values: paper PMC6270194 (Molecules, 2013).
